One assay addresses T1, SMARCA4 (Homo sapiens, UniProt P51532).
T1 construct: SMARCA4-HiBiT knock-in Hela monoclonal cell (CS3023226); host or cells: HeLa monoclonal cells with heterozygous HiBiT knock-in at the endogenous SMARCA4 locus
Put plainly: SMARCA4 HiBiT degradation assay in HeLa cells. Format: cell-based. The settings on record: 18 hours, highest concentration 10 μM. In outline: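 HeLa monoclonal cells with HiBiT knocked into SMARCA4 were seeded at 2500 cells/well, dosed with compound and incubated 18 hours at 37° C. HiBiT signal reported remaining SMARCA4 protein, and values came from curve fitting.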
On the technique in general: The HiBiT peptide binds its large partner to form an active luciferase.

In a further assay the target is T2, SMARCA2 (Homo sapiens, UniProt P51531).
T2 construct: SMARCA2-HiBiT knock-in Hela monoclonal cell (CS302366); host or cells: HeLa monoclonal cells with heterozygous HiBiT knock-in at the endogenous SMARCA2 locus
Description: SMARCA2 HiBiT degradation assay in HeLa cells. Format: cell-based. Particulars: 18 hours, highest concentration 10 μM. The method, boiled down:
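HeLa cells carrying a heterozygous C-terminal HiBiT knock-in on SMARCA2 were seeded at 2500 cells/well. They were treated with 3-fold dilution series, top concentration 10 μM, for 18 h at 37 °C. Remaining SMARCA2-HiBiT was measured by Nano-Glo HiBiT lytic luminescence after 30-60 min at RT, followed by curve fitting.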

For orientation: DC50 means the concentration at which degradation of the target reaches its halfway point. One may read the Dmax as the largest share of the target that was removed. Low values mean a partial loss of target, high ones a fuller loss of target.

Some results are limits rather than exact numbers.

T2 sequence (P51531 whole entry): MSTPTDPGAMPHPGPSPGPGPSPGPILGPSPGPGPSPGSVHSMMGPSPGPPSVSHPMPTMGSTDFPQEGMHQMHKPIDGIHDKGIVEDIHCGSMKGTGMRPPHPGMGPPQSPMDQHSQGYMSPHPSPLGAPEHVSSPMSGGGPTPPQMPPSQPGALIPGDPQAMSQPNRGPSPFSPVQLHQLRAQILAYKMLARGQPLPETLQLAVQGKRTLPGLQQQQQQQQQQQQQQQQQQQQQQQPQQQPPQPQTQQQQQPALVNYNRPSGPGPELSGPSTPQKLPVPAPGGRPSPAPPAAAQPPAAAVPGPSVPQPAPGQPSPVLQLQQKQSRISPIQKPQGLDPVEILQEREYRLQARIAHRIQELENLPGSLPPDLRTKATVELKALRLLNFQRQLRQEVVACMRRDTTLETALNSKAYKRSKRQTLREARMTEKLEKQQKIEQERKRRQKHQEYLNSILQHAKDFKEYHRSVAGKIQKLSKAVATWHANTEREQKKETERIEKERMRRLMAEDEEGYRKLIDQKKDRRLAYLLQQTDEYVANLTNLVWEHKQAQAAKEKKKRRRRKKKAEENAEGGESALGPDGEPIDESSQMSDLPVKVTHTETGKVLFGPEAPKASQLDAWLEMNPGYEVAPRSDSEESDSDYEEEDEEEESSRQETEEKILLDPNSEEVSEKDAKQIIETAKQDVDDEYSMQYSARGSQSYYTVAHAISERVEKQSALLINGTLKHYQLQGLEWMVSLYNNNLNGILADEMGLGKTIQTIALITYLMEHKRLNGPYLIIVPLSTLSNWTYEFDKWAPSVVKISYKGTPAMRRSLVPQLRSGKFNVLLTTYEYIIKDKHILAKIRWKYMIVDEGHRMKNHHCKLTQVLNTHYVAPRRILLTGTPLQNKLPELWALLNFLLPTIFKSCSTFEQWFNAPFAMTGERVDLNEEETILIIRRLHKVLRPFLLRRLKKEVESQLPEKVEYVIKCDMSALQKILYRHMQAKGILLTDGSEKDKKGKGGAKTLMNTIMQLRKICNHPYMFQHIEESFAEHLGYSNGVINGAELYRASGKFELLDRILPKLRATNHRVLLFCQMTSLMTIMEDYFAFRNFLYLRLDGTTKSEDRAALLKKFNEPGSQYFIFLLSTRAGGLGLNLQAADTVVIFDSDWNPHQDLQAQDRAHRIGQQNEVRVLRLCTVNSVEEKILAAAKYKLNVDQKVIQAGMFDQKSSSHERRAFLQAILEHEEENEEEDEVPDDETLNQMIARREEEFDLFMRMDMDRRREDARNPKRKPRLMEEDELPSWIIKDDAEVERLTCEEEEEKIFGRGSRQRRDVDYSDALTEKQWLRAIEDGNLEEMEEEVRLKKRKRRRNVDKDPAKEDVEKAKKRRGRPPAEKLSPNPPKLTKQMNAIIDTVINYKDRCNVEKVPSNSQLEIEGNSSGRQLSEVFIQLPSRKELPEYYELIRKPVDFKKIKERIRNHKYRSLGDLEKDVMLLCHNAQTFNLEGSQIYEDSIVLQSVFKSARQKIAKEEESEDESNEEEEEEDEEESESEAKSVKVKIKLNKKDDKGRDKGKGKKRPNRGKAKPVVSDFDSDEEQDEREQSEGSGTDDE
T1 sequence (P51532 whole entry): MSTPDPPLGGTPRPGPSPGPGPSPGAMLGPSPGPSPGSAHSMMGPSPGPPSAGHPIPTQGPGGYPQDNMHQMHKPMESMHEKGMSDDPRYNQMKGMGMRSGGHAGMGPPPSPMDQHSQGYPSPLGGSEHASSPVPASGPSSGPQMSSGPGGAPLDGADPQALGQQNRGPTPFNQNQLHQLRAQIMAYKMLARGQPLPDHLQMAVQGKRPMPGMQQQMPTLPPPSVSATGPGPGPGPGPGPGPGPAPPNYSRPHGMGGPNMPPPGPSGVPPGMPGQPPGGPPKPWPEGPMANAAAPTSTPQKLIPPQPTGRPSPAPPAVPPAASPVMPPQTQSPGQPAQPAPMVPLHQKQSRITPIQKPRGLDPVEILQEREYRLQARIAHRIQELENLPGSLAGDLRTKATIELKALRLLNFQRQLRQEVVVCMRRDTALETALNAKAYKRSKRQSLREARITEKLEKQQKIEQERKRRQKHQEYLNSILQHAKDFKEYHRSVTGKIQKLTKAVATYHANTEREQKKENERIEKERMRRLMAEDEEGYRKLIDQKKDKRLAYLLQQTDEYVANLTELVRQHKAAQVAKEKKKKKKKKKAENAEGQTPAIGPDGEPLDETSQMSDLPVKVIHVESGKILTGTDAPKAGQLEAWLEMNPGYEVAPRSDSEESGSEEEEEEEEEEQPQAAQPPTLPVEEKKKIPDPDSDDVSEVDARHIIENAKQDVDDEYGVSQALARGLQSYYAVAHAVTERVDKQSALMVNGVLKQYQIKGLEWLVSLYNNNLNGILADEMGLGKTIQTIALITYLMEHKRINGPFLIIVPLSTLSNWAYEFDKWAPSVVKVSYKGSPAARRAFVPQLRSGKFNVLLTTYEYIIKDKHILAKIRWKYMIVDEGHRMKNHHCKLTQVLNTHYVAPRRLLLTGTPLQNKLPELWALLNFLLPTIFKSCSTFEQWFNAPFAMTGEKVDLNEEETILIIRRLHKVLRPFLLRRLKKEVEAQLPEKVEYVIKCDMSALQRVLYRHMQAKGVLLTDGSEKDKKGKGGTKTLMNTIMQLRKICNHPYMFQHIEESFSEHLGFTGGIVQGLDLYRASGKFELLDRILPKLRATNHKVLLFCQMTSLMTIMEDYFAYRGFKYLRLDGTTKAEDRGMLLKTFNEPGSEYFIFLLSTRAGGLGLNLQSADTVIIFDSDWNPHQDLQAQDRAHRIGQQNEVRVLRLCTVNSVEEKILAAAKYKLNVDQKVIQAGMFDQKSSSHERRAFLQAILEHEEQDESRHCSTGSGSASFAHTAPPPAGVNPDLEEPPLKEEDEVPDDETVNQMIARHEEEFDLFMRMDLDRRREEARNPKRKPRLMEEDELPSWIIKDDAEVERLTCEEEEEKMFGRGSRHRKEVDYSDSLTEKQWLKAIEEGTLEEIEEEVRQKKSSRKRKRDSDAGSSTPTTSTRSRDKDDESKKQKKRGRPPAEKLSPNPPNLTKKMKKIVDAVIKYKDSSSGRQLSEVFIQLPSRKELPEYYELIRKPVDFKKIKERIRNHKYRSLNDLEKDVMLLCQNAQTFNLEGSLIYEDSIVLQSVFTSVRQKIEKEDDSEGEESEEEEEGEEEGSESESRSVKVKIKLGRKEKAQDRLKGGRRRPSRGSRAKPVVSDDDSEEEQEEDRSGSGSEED

`O=C1CCC(N2Cc3ccc(N4CCN(Cc5cnc(O[C@H]6CN7c8cc(-c9cccc(F)c9O)nnc8NC[C@@]7(CF)C6)c(F)c5)CC4)cc3C2=O)C(=O)N1` (stereo partly drawn) [Example 70, 3-(6-(4-((5-fluoro-6-(((6aR,8R)-2-(3-fluoro-2-hydroxyphenyl)-6a-(fluoromethyl)-5,6,6a,7,8,9-hexahydropyrrolo[1′,2′:4,5]pyrazino[2,3-c]pyridazin-8-yl)oxy)pyridin-3-yl)methyl)piperazin-1-yl)-1-oxoisoindolin-2-yl)piperidine-2,6-dione]: on SMARCA4, the DC50 was below 100 nM and the Dmax fell in the range of 50 to 75%. In addition, at SMARCA2, the DC50 was below 100 nM and the Dmax was above 75%.

With `Cc1c(CN2CCN(c3ccc4c(c3)C(=O)N([C@H]3CCC(=O)NC3=O)C4)CC2)cnc(O[C@H]2CN3c4cc(-c5cccc(F)c5O)nnc4NC[C@@]3(CF)C2)c1F` [Example 71, (S)-3-(6-(4-((5-fluoro-6-(((6aR,8R)-2-(3-fluoro-2-hydroxyphenyl)-6a-(fluoromethyl)-5,6,6a,7,8,9-hexahydropyrrolo[1′,2′:4,5]pyrazino[2,3-c]pyridazin-8-yl)oxy)-4-methylpyridin-3-yl)methyl)piperazin-1-yl)-1-oxoisoindolin-2-yl)piperidine-2,6-dione], at SMARCA4, the DC50 was above 1000 nM and the Dmax was below 50%. Besides, on SMARCA2, the DC50 is below 100 nM and the Dmax was above 75%.

Regarding `CC[C@@]12CNc3nnc(-c4cccc(F)c4O)cc3N1C[C@H](Oc1cnc(CN3CCN(c4ccc5c(c4)CN([C@H]4CCC(=O)NC4=O)C5)CC3)c(F)c1)C2` [Example 72, (S)-3-(6-(4-((5-(((6aR,8R)-6a-Ethyl-2-(3-fluoro-2-hydroxyphenyl)-5,6,6a,7,8,9-exahydropyrrolo[1′,2′:4,5]pyrazino[2,3-c]pyridazin-8-yl)oxy)-3-fluoropyridin-2-yl)methyl)piperazin-1-yl)-1-oxoisoindolin-2-yl)piperidine-2,6-dione], at SMARCA4, the DC50 was in the range of 100 to 1000 nM and the Dmax was below 50%. Also, at SMARCA2, the DC50 was below 100 nM and the Dmax is above 75%.

On SMARCA4, `CC[C@]12CNc3nnc(-c4cccc(F)c4O)cc3N1C[C@H](Oc1cnc(CN3CCN(c4ccc5c(c4)CN([C@H]4CCC(=O)NC4=O)C5=O)CC3)c(C(F)(F)F)c1)C2` [Example 73, (S)-3-(5-(4-((5-(((6aS,8R)-6a-ethyl-2-(3-fluoro-2-hydroxyphenyl)-5,6,6a,7,8,9-hexahydropyrrolo[1′,2′:4,5]pyrazino[2,3-c]pyridazin-8-yl)oxy)-3-(trifluoromethyl)pyridin-2-yl)methyl)piperazin-1-yl)-1-oxoisoindolin-2-yl)piperidine-2,6-dione] had a DC50 below 100 nM and a Dmax of 50 to 75%. For the same compound, on SMARCA2, the DC50 was below 100 nM and the Dmax is above 75%.

For the compound `CC[C@]12CNc3nnc(-c4cccc(F)c4O)cc3N1C[C@H](Oc1cnc(CN3CCN(c4ccc5c(c4)CN([C@H]4CCC(=O)NC4=O)C5=O)CC3)c(C)c1)C2` [Example 74, (S)-3-(5-(4-((5-(((6aS,8R)-6a-ethyl-2-(3-fluoro-2-hydroxyphenyl)-5,6,6a,7,8,9-hexahydropyrrolo[1′,2′:4,5]pyrazino[2,3-c]pyridazin-8-yl)oxy)-3-methylpyridin-2-yl)methyl)piperazin-1-yl)-1-oxoisoindolin-2-yl)piperidine-2,6-dione], at SMARCA4, the DC50 was below 100 nM and the Dmax is above 75%. For the same compound, on SMARCA2, the DC50 is below 100 nM and the Dmax is above 75%.

Take `Cc1nc(O[C@H]2CN3c4cc(-c5cccc(F)c5O)nnc4NC[C@@]3(C)C2)nc(C)c1CN1CCN(c2ccc3c(c2)C(=O)N([C@H]2CCC(=O)NC2=O)C3)CC1` [Example 75, (S)-3-(6-(4-((2-(((6aR,8R)-2-(3-fluoro-2-hydroxyphenyl)-6a-methyl-5,6,6a,7,8,9-hexahydropyrrolo[1′,2′:4,5]pyrazino[2,3-c]pyridazin-8-yl)oxy)-4,6-dimethylpyrimidin-5-yl)methyl)piperazin-1-yl)-1-oxoisoindolin-2-yl)piperidine-2,6-dione]: the 50% degradation concentration (DC50) on SMARCA4 was 100 to 1000 nM; at SMARCA2, below 100 nM. Besides, the Dmax on SMARCA4 is below 50%; on SMARCA2 it was above 75%.

Take `C[C@]12CNc3nnc(-c4cccc(F)c4O)cc3N1C[C@H](Oc1cc(C#N)c(CN3CCN(c4ccc5c(c4)C(=O)N([C@H]4CCC(=O)NC4=O)C5)CC3)cn1)C2` [Example 76, 5-((4-(2-((S)-2,6-dioxopiperidin-3-yl)-3-oxoisoindolin-5-yl)piperazin-1-yl)methyl)-2-(((6aS,8R)-2-(3-fluoro-2-hydroxyphenyl)-6a-methyl-5,6,6a,7,8,9-hexahydropyrrolo[1′,2′:4,5]pyrazino[2,3-c]pyridazin-8-yl)oxy)isonicotinonitrile]: at SMARCA4, the DC50 is below 100 nM and the Dmax was above 75%. At SMARCA2, the DC50 was below 100 nM and the greatest degradation seen (Dmax) is above 75%.

`Cc1nc(O[C@H]2CN3c4cc(-c5cccc(F)c5O)nnc4NC[C@@]3(C)C2)ncc1CN1CCC(c2ccc3c(c2)C(=O)N([C@H]2CCC(=O)NC2=O)C3)CC1` [Example 77, (S)-3-(6-(1-((2-(((6aR,8R)-2-(3-fluoro-2-hydroxyphenyl)-6a-methyl-5,6,6a,7,8,9-hexahydropyrrolo[1′,2′:4,5]pyrazino[2,3-c]pyridazin-8-yl)oxy)-4-methylpyrimidin-5-yl)methyl)piperidin-4-yl)-1-oxoisoindolin-2-yl)piperidine-2,6-dione]: at SMARCA4, the DC50 was above 1000 nM and the Dmax was below 50%. At SMARCA2, the DC50 is below 100 nM and the greatest degradation seen (Dmax) is above 75%.

Turning to `Cc1nc(O[C@H]2CN3c4cc(-c5cccc(F)c5O)nnc4NC[C@@]3(C)C2)nc(C)c1CN1CCC(c2ccc3c(c2)C(=O)N([C@H]2CCC(=O)NC2=O)C3)CC1` [Example 78, (S)-3-(6-(1-((2-(((6aR,8R)-2-(3-fluoro-2-hydroxyphenyl)-6a-methyl-5,6,6a,7,8,9-hexahydropyrrolo[1′,2′:4,5]pyrazino[2,3-c]pyridazin-8-yl)oxy)-4,6-dimethylpyrimidin-5-yl)methyl)piperidin-4-yl)-1-oxoisoindolin-2-yl)piperidine-2,6-dione], on SMARCA4, the DC50 is above 1000 nM and the Dmax was below 50%. At SMARCA2, this compound displayed a DC50 below 100 nM and a Dmax above 75%.

As to `C[C@]12CNc3nnc(-c4cccc(F)c4O)cc3N1C[C@H](Oc1cnc(CN3CCN(c4ccc5c(c4)C(=O)N([C@H]4CCC(=O)NC4=O)C5)CC3)cn1)C2` [Example 79, (S)-3-(6-(4-((5-(((6aS,8R)-2-(3-fluoro-2-hydroxyphenyl)-6a-methyl-5,6,6a,7,8,9-hexahydropyrrolo[1′,2′:4,5]pyrazino[2,3-c]pyridazin-8-yl)oxy)pyrazin-2-yl)methyl)piperazin-1-yl)-1-oxoisoindolin-2-yl)piperidine-2,6-dione], the DC50 on SMARCA4 and at SMARCA2 was below 100 nM in each case. Also, the Dmax on SMARCA4 was 50 to 75%; on SMARCA2, above 75%.

As for `Cc1cc(O[C@H]2CN3c4cc(-c5cccc(F)c5O)nnc4NC[C@]3(C)C2)c(C)nc1CN1CCN(c2ccc3c(c2)C(=O)N([C@H]2CCC(=O)NC2=O)C3)CC1` [Example 80, (S)-3-(6-(4-((5-(((6aS,8R)-2-(3-fluoro-2-hydroxyphenyl)-6a-methyl-5,6,6a,7,8,9-hexahydropyrrolo[1′,2′:4,5]pyrazino[2,3-c]pyridazin-8-yl)oxy)-3,6-dimethylpyridin-2-yl)methyl)piperazin-1-yl)-1-oxoisoindolin-2-yl)piperidine-2,6-dione], at SMARCA4, the DC50 is below 100 nM and the Dmax is 50 to 75%. Besides, on SMARCA2, the DC50 was below 100 nM and the Dmax is above 75%.

On SMARCA4, `Cc1cc(O[C@H]2CN3c4cc(-c5cccc(F)c5O)nnc4NC[C@@]3(C)C2)cnc1CN1CCN(c2ccc3c(c2)C(=O)N([C@H]2CCC(=O)NC2=O)C3)CC1` [Example 81, (S)-3-(6-(4-((5-(((6aR,8R)-2-(3-fluoro-2-hydroxyphenyl)-6a-methyl-5,6,6a,7,8,9-hexahydropyrrolo[1′,2′:4,5]pyrazino[2,3-c]pyridazin-8-yl)oxy)-3-methylpyridin-2-yl)methyl)piperazin-1-yl)-1-oxoisoindolin-2-yl)piperidine-2,6-dione] yielded a DC50 of 100 to 1000 nM and a Dmax below 50%. On SMARCA2, this compound came in with a DC50 below 100 nM and a Dmax above 75%.

As for `Cc1cc(O[C@H]2CN3c4cc(-c5cccc(F)c5O)nnc4NC[C@]3(C)C2)cnc1CN1CCN(c2ccc3c(c2)C(=O)N([C@H]2CCC(=O)NC2=O)C3)CC1` [Example 82, (S)-3-(6-(4-((5-(((6aS,8R)-2-(3-fluoro-2-hydroxyphenyl)-6a-methyl-5,6,6a,7,8,9-hexahydropyrrolo[1′,2′:4,5]pyrazino[2,3-c]pyridazin-8-yl)oxy)-3-methylpyridin-2-yl)methyl)piperazin-1-yl)-1-oxoisoindolin-2-yl)piperidine-2,6-dione], the DC50 on SMARCA4 and at SMARCA2 was below 100 nM each time. The Dmax on SMARCA4 is 50 to 75%; at SMARCA2, above 75%.

`Cc1cc(CN2CCN(c3ccc4c(c3)C(=O)N([C@H]3CCC(=O)NC3=O)C4)CC2)cnc1O[C@H]1CN2c3cc(-c4cccc(F)c4O)nnc3NC[C@]2(C)C1` [Example 83, (S)-3-(6-(4-((6-(((6aS,8R)-2-(3-fluoro-2-hydroxyphenyl)-6a-methyl-5,6,6a,7,8,9-hexahydropyrrolo[1′,2′:4,5]pyrazino[2,3-c]pyridazin-8-yl)oxy)-5-methylpyridin-3-yl)methyl)piperazin-1-yl)-1-oxoisoindolin-2-yl)piperidine-2,6-dione]: the DC50 at SMARCA4 and at SMARCA2 was below 100 nM throughout. In addition, the Dmax at SMARCA4 and at SMARCA2 was above 75% throughout.

Source of the values: patent US20240165244A1 (Prelude Therapeutics Incorporated, priority 2022, published 2024).
